Measured values reported in the CheMixHub viscosity set.
Where “and” joins values, the source holds several entries; their conditions need not be identical. Identical values can stand only once.

Experiment: xn = mol fraction of the nth substance listed

O=[N+]([O-])c1ccccc1O + Brc1ccccc1
viscosity [mPa·s], 101 kPa
Details	303.15 K	308.15 K	313.15 K	318.15 K	323.15 K
x1 = 0.602	1.884	1.719	1.576	1.46	1.35
x1 = 0.8579	–	2.658	2.366	2.134	1.934

CCCCCCCCCO + C1CCCCC1
viscosity [mPa·s]
Details	293.15 K	303.15 K	313.15 K	323.15 K
100 kPa, x2 = 0.0822	9.85	6.89	4.93	3.66
100 kPa, x2 = 0.1616	8.5	6	4.32	3.23
100 kPa, x2 = 0.2413	7.2	5.17	3.76	2.83
100 kPa, x2 = 0.3502	5.63	4.15	3.05	2.33
100 kPa, x2 = 0.4404	4.51	3.44	2.54	1.96
100 kPa, x2 = 0.5611	3.29	2.63	1.97	1.56
100 kPa, x2 = 0.6503	2.57	2.13	1.6	1.3
100 kPa, x2 = 0.7412	1.96	1.68	1.3	1.08
100 kPa, x2 = 0.8514	1.42	1.26	1.03	0.86
100 kPa, x2 = 0.9397	1.11	0.97	0.81	0.7
101.33 kPa, x1 = 0.105	–	1.068	–	–
101.33 kPa, x1 = 0.2105	–	1.397	–	–
101.33 kPa, x1 = 0.311	–	1.784	–	–
101.33 kPa, x1 = 0.3969	–	2.186	–	–
101.33 kPa, x1 = 0.4955	–	2.735	–	–
101.33 kPa, x1 = 0.6055	–	3.462	–	–
101.33 kPa, x1 = 0.6959	–	4.153	–	–
101.33 kPa, x1 = 0.801	–	5.108	–	–
101.33 kPa, x1 = 0.9054	–	6.215	–	–

Cc1cccc2ccccc12 + CC1CCCCC1
viscosity [mPa·s], 100 kPa
Details	x1 = 0.125	x1 = 0.25	x1 = 0.375	x1 = 0.5	x1 = 0.625	x1 = 0.75	x1 = 0.875
303.15 K	0.715	0.829	0.972	1.13	1.37	1.67	2.06
323.15 K	0.559	0.64	0.733	0.853	1.01	1.2	1.44

CC(=O)N(C)C + CC#N
303.15 K, 101.33 kPa
Details	viscosity [mPa·s]
x2 = 0.0996	0.8371
x2 = 0.2019	0.7966
x2 = 0.2938	0.7487
x2 = 0.3974	0.7001
x2 = 0.497	0.6422
x2 = 0.5983	0.5843
x2 = 0.7013	0.5199
x2 = 0.7983	0.4568
x2 = 0.9001	0.3878

CCC1CCCCC1 + CC(=O)CC(C)C
298.15 K, 101 kPa
Details	viscosity [mPa·s]
x2 = 0.1314	0.695
x2 = 0.2549	0.645
x2 = 0.3669	0.621
x2 = 0.473	0.6
x2 = 0.5856	0.583
x2 = 0.7041	0.567
x2 = 0.8091	0.556
x2 = 0.9079	0.547

CC(=O)N(C)C + CC(C)O
303.15 K, 101 kPa
Details	viscosity [mPa·s]
x1 = 0.1016	1.428
x1 = 0.2027	1.222
x1 = 0.3046	1.1
x1 = 0.5032	0.994
x1 = 0.6012	0.945
x1 = 0.7055	0.939
x1 = 0.906	0.884

CC(=O)N1CCOCC1 + CC(C)O
viscosity [mPa·s], 101 kPa
Details	293.15 K	303.15 K	313.15 K	323.15 K
x1 = 0.0522	3.709	2.981	2.398	2.058
x1 = 0.1274	4.822	4.027	3.33	2.819
x1 = 0.2153	6.051	5.18	4.35	3.754
x1 = 0.2813	6.792	5.862	4.934	4.274
x1 = 0.3169	7.055	6.069	5.112	4.418
x1 = 0.3909	7.575	6.548	5.454	4.686
x1 = 0.4569	7.956	6.872	5.68	4.85
x1 = 0.4999	8.044	6.922	5.666	4.794
x1 = 0.5444	8.301	7.14	5.816	4.903
x1 = 0.6113	8.421	7.202	5.778	4.799
x1 = 0.6342	8.356	7.116	5.656	4.656
x1 = 0.6888	8.479	7.191	5.651	4.597
x1 = 0.7522	8.573	7.229	5.593	4.478
x1 = 0.7976	8.575	7.191	5.487	4.328
x1 = 0.8555	8.612	7.176	5.389	4.174
x1 = 0.9231	8.559	7.065	5.172	3.892
x2 = 0.0188	8.649	7.104	5.163	3.893

Cc1cccc2ccccc12 + CC(CC(C)(C)C)CC(C)(C)CC(C)(C)C
viscosity [mPa·s], 100 kPa
Details	x1 = 0.125	x1 = 0.25	x1 = 0.375	x1 = 0.5	x1 = 0.625	x1 = 0.75	x1 = 0.875
293.15 K	3.46	3.24	3.09	2.97	2.88	2.9	3.02
303.15 K	2.75	2.61	2.47	2.38	2.32	2.33	2.4
313.15 K	2.29	2.14	2.02	1.95	1.9	1.91	1.97
323.15 K	1.86	1.76	1.7	1.64	1.6	1.61	1.64

CCCCCCCCCO + CCC(C)=O
viscosity [mPa·s], 100 kPa
Details	x2 = 0.0834	x2 = 0.1589	x2 = 0.2407	x2 = 0.3508	x2 = 0.4403	x2 = 0.5589	x2 = 0.6502	x2 = 0.7393	x2 = 0.8501	x2 = 0.9393
293.15 K	8.68	6.91	5.59	4.29	3.39	2.38	1.83	1.33	0.78	0.56
303.15 K	6.38	5.06	3.89	2.91	2.25	1.52	0.98	0.76	0.53	0.46
313.15 K	4.39	3.52	2.8	2.07	1.61	1.21	0.98	0.78	0.55	0.42
323.15 K	3.27	2.67	2.14	1.56	1.25	0.92	0.72	0.59	0.47	0.38

CC(=O)N1CCOCC1 + CCC(C)O
viscosity [mPa·s], 101 kPa
Details	293.15 K	303.15 K	313.15 K	323.15 K
x1 = 0.0516	5.054	4.116	3.093	2.101
x1 = 0.1322	6.732	5.737	4.626	3.598
x1 = 0.2217	8.167	7.11	5.901	4.833
x1 = 0.2879	8.981	7.878	6.596	5.499
x1 = 0.3188	9.257	8.132	6.816	5.706
x1 = 0.3996	9.785	8.603	7.199	6.052
x1 = 0.4597	10.02	8.8	7.33	6.157
x1 = 0.5084	–	–	7.42	–
x1 = 0.5094	10.2	8.944	–	6.225
x1 = 0.5496	10.27	8.985	7.418	6.204
x1 = 0.6127	10.29	8.96	7.323	6.082
x1 = 0.6444	10.11	8.757	7.086	5.83
x1 = 0.6915	10.11	8.728	7.005	5.728
x1 = 0.7516	9.956	8.527	6.739	5.436
x1 = 0.7984	9.588	8.127	6.288	4.964
x1 = 0.8599	9.409	7.905	5.998	4.647
x1 = 0.9127	8.959	7.419	5.454	4.079
x2 = 0.0157	8.843	7.252	5.209	3.918

CCCCCC[n+]1ccn(C)c1.O=[N+]([O-])[O-] + CCC(C)O
Details	viscosity [mPa·s]
298.15 K, 100 kPa, x1 = 0.7392	237.5

Cc1cccc2ccccc12 + CCCCCCC
viscosity [mPa·s], 100 kPa
Details	x2 = 0.125	x2 = 0.25	x2 = 0.375	x2 = 0.5	x2 = 0.625	x2 = 0.75	x2 = 0.875
303.15 K	1.84	1.36	1.03	0.8	0.644	0.524	0.438
323.15 K	1.3	1	0.781	0.625	0.512	0.424	0.357

CCC1CCCCC1 + CCCCCCCC(=O)OCC
viscosity [mPa·s], 100 kPa
Details	x1 = 0.1001	x1 = 0.2	x1 = 0.3	x1 = 0.3998	x1 = 0.5	x1 = 0.5997	x1 = 0.7	x1 = 0.8001	x1 = 0.9
293.15 K	1.446	1.359	1.278	1.201	1.128	1.058	0.992	0.929	0.877
298.15 K	1.328	1.254	1.182	1.113	1.046	0.983	0.924	0.869	0.821
303.15 K	1.224	1.156	1.09	1.03	0.971	0.916	0.862	0.812	0.768
308.15 K	1.132	1.071	1.012	0.957	0.903	0.854	0.808	0.762	0.72
313.15 K	1.039	0.985	0.932	0.882	0.835	0.792	0.749	0.709	0.674
318.15 K	0.977	0.927	0.879	0.833	0.79	0.748	0.71	0.672	0.64
323.15 K	0.902	0.856	0.812	0.771	0.733	0.696	0.661	0.625	0.595

CCC1CCCCC1 + CCCCCCCCCC(=O)OCC
viscosity [mPa·s], 100 kPa
Details	x1 = 0.1001	x1 = 0.1999	x1 = 0.3001	x1 = 0.4	x1 = 0.5002	x1 = 0.5998	x1 = 0.7	x1 = 0.8	x1 = 0.9001
293.15 K	2.153	1.979	1.807	1.642	1.487	1.342	1.204	1.079	0.96
298.15 K	1.963	1.807	1.655	1.51	1.373	1.242	1.12	1.007	0.9
303.15 K	1.778	1.642	1.51	1.382	1.261	1.146	1.038	0.936	0.84
308.15 K	1.626	1.503	1.384	1.271	1.165	1.063	0.966	0.873	0.786
313.15 K	1.494	1.385	1.276	1.174	1.078	0.987	0.9	0.815	0.734
318.15 K	1.377	1.279	1.185	1.095	1.01	0.928	0.846	0.767	0.692
323.15 K	1.27	1.184	1.102	1.021	0.943	0.867	0.793	0.722	0.652

Cc1cccc2ccccc12 + CCCCCCCCCCCC
323.15 K, 100 kPa
Details	viscosity
x1 = 0.382	1.01 mPa·s and 1.02 mPa·s
x1 = 0.699	1.22 mPa·s

CCCCCCCCCO + CCCCCCCCCCO
Details	viscosity [mPa·s]
293.15 K, 101.33 kPa, x1 = 0.1193	14.2
293.15 K, 101.33 kPa, x1 = 0.3048	13.76
293.15 K, 101.33 kPa, x1 = 0.5886	12.82
293.15 K, 101.33 kPa, x1 = 0.8745	12.02
298.15 K, 101.33 kPa, x1 = 0.2583	11.34
298.15 K, 101.33 kPa, x1 = 0.6152	10.53
298.15 K, 101.33 kPa, x1 = 0.869	9.852
298.15 K, 101.8 kPa, x1 = 0.9074	9.726
308.15 K, 101.8 kPa, x1 = 0.1082	7.899
308.15 K, 101.8 kPa, x1 = 0.3202	7.632
308.15 K, 101.8 kPa, x1 = 0.7188	7.125
308.15 K, 101.8 kPa, x1 = 0.9074	6.876
318.15 K, 101.8 kPa, x1 = 0.1082	5.649
318.15 K, 101.8 kPa, x1 = 0.3202	5.463
318.15 K, 101.8 kPa, x1 = 0.5233	5.336
318.15 K, 101.8 kPa, x1 = 0.7188	5.124
318.15 K, 101.8 kPa, x1 = 0.9074	4.953
